The first assay addresses KRas G12D/Q61H double mutant (Homo sapiens (Human), UniProt P01116, G12D/Q61H). Description: Ras GTP binding domain inhibition assay (labeled GTP). To be noted: 20 μM compound; KRas G12D/Q61H double mutant; read-out: % Inhibition at 20 μM of K-Ras mutant and wild-type protein, KRas G12D Q61H. In outline: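 Labelled-GTP binding: plate-captured His-KRas protein was pre-exposed to compound for 3 h at room temperature (single 20 μM point or dilution series, 1% DMSO, Tris pH 7.5/MgCl2/DTT buffer). Cy3- or Cy5-GTP was then added for 45 min. Washed wells were read for retained fluorescence to give inhibition or IC50.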
Chain of KRas G12D/Q61H double mutant (P01116-2 other isoform, or with tags, fused parts or gaps G12D/Q61H): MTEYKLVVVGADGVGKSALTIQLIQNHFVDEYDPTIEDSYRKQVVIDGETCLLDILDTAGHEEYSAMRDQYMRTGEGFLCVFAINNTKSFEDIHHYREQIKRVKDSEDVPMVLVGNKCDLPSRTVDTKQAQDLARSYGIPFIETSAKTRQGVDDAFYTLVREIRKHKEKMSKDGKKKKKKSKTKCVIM
As for `COCCCN(C(=O)c1ccc(-n2nc(C)c(Cl)c2C)cc1)S(=O)(=O)c1ccc(OC)cc1`, the inhibition at 20 µM was 25 to 50%.

On to `O=C(c1ccc(-c2ccccc2F)o1)N(Cc1ccco1)C1CCCC1`, for which the inhibition at 20 µM fell in the range of 51 to 75%.

Consider `CCCN(CC1CC1)C(=O)COC(=O)c1c(C)nc(-c2cccs2)nc1SC`, for which the inhibition at 20 µM was in the range of 1 to 25%.

As to `CC1CCCN(c2nc(-c3ccc(O)cc3O)cs2)C1` (stereo not shown), the inhibition at 20 µM lay in the range of 25 to 50%.

Regarding `Cc1ccc(OCCn2c(CN3CCCCC3)nc3ccccc32)cc1C`, the inhibition at 20 µM was in the range of 25 to 50%.

On to `Cn1ccnc1C(NCCOc1ccc2cc(Br)ccc2c1)C1CC1` (stereo not shown), for which the inhibition at 20 µM lay in the range of 1 to 25%.

With `CC(C)c1ccc(-c2nc(C(=O)NC(C)c3ccccn3)cs2)cc1` (stereo not shown), the inhibition at 20 µM lay in the range of 25 to 50%.

On to `O=c1[nH]c(CN(CCc2ccc(Cl)cc2)Cc2nc3ccsc3c(=O)[nH]2)nc2ccsc12`, for which the inhibition at 20 µM is 25 to 50%.

In the case of `CC(O)(c1ccc(OCc2csc(Cc3ccccc3)n2)cc1)C(F)(F)F` (stereo not shown), the inhibition at 20 µM lay in the range of 25 to 50%.

As to `CC(C)(C)NS(=O)(=O)c1ccccc1CNC(=O)CCC1CCCCC1`, the inhibition at 20 µM lay within 25 to 50%.

Regarding `COC(=O)c1ccc(Oc2ccc(S(=O)(=O)N3CCCCC3)cc2NCc2cc(C)on2)cc1`, the inhibition at 20 µM fell in the range of 25 to 50%.

Turning to `CCOc1ccc(C2=NN(C(=O)CC)C(c3ccc(CC)cc3)C2)cc1` (stereo not shown), the inhibition at 20 µM is 25 to 50%.

As to `Cc1nn(Cc2ccccc2Cl)c(C)c1CN(C)S(=O)(=O)c1cccs1`, the inhibition at 20 µM was 1 to 25%.

On to `CCC(C)(C)c1ccc(Oc2ccc(NC(=O)NS(=O)(=O)c3ccc(C)cc3)cc2)cc1`, for which the inhibition at 20 µM was 51 to 75%.

Take `COC(=O)C(C)CN(Cc1ccc(OCc2ccc([N+](=O)[O-])cc2)c(OC)c1)C1CC1` (stereo not shown): the inhibition at 20 µM lay in the range of 25 to 50%.

`O=[N+]([O-])c1ccc(O)c2ncccc12`: the inhibition at 20 µM is 25 to 50%.

Turning to `CCOC(COCCNC(=O)c1ccsc1NC(=O)c1ccc(C(C)C)cc1)OCC`, the inhibition at 20 µM lay in the range of 1 to 25%.

As for `CC(C)(CNc1ccc(S(=O)(=O)N(Cc2ccccc2)Cc2ccccc2)cn1)N1CCOCC1`, the inhibition at 20 µM lay within 25 to 50%.

Take `CN(C)S(=O)(=O)c1cccc(CSCCOc2cccc(Cl)c2)c1`: the inhibition at 20 µM lay in the range of 25 to 50%.

On to `Cc1occc1C(=O)OCC(COC(=O)c1ccoc1C)NC(=O)OC(C)(C)C`, for which the inhibition at 20 µM lay in the range of 25 to 50%.

With `Cc1nc(Cc2nnc(SCc3ccc(-c4ccccc4C#N)cc3)o2)cs1`, the inhibition at 20 µM is 1 to 25%.

Regarding `CCCOc1ccc2ccccc2c1CN(C)Cc1nnc(-c2ccccc2)o1`, the inhibition at 20 µM lay within 25 to 50%.

Turning to `COc1ccccc1CN(Cc1cccs1)C(=O)c1ccc(COC(C)C)cc1`, the inhibition at 20 µM was 25 to 50%.

Regarding `COc1ccc(CN(C)Cc2ccc(OC)c(SC(F)(F)F)c2)cc1F`, the inhibition at 20 µM was 25 to 50%.

As to `CN(Cc1nnc(-c2ccc(F)cc2)o1)CC12CC3CC(CC(C3)C1)C2`, the inhibition at 20 µM lay in the range of 25 to 50%.

In the case of `CC(C)(C)OC(=O)N1CCCN1c1nc(-c2cccs2)nc2ccccc12`, the inhibition at 20 µM is 25 to 50%.

Still in this assay, the particulars now being: 20 μM compound; read-out: % Inhibition at 20 μM KRas G12D Q61H.
Take `Cc1ccc(OCc2nnc(SCC3CCCCO3)o2)cc1` (stereo not shown): the inhibition at 20 µM is 1 to 25%.

Turning to `Cc1sc(C2CC2)nc1-c1ccc(F)c(F)c1`, the inhibition at 20 µM was 25 to 50%.

Take `CCOC(=O)c1sc(N(C2CC2)S(=O)(=O)c2ccc(OC)c(C)c2)nc1C`: the inhibition at 20 µM lay in the range of 1 to 25%.

On to `Nc1nc(O)c2scc(C(=O)N3CCN(c4ccccc4)CC3)c2n1`, for which the inhibition at 20 µM lay in the range of 25 to 50%.

Consider `O=C(Nc1ccc(N2CCOCC2)cc1)c1ccccc1OCCOc1ccccc1`, for which the inhibition at 20 µM lay in the range of 1 to 25%.

For `O=C(CCc1nc2ccccc2s1)Nc1nnc(-c2ccccn2)[nH]1`, the inhibition at 20 µM lay within 25 to 50%.

With `Cc1nc(CNc2ccccc2Oc2cccc(F)c2)no1`, the inhibition at 20 µM lay in the range of 1 to 25%.

Turning to `COc1ccccc1CN(Cc1cccs1)C(=O)c1ccc(-c2nnn[nH]2)cc1`, the inhibition at 20 µM lay in the range of 1 to 25%.

Consider `O=C(c1cc(-c2ccc(F)cc2)[nH]n1)N(Cc1ccco1)C1CCCC1`, for which the inhibition at 20 µM was in the range of 1 to 25%.

`COC(=O)CCN(Cc1ccc(Oc2ccc(OC)cc2)cc1)C1CCOCC1`: the inhibition at 20 µM was 1 to 25%.

Regarding `O=C(NCc1ccccn1)c1csc(-c2ccc(Cl)cc2)n1`, the inhibition at 20 µM is 1 to 25%.

For `O=C(Nc1cccc(C(=O)Nc2nnc(-c3ccccn3)[nH]2)c1)c1cccnc1`, the inhibition at 20 µM lay in the range of 25 to 50%.

With `CN(Cc1ccc(C(F)(F)F)cc1)Cc1cc2c(cc1O)CCC2`, the inhibition at 20 µM lay in the range of 25 to 50%.

Regarding `Cc1n[nH]c(C2CN(C(C)c3ccncc3)CCO2)n1` (stereo not shown), the inhibition at 20 µM lay in the range of 25 to 50%.

For the compound `CC(C)(C)c1ccc(OCC(=O)N2N=CCC2(O)C(F)(F)F)cc1` (stereo not shown), the inhibition at 20 µM is 25 to 50%.

As to `COc1cc(C)ccc1OS(=O)(=O)N1CCc2ccccc2C1`, the inhibition at 20 µM lay within 1 to 25%.

As to `CN(Cc1ccco1)C(=O)c1ccc(COc2ccccc2)o1`, the inhibition at 20 µM is 1 to 25%.

For `Cc1ccc(S(=O)(=O)Nc2ccc(OS(=O)(=O)N(C)Cc3ccccc3)cc2)cc1`, the inhibition at 20 µM was in the range of 25 to 50%.

For `O=C(Cc1ccc2c(c1)CCCC2)Nc1nnc(-c2ccccn2)[nH]1`, the inhibition at 20 µM was 25 to 50%.

`Cn1ccnc1COc1ccc(C(=O)Nc2nnc(-c3ccccn3)[nH]2)cc1`: the inhibition at 20 µM was 25 to 50%.

For the compound `Cc1c(C(=O)Nc2nnc(-c3ccccn3)[nH]2)cnn1-c1ccc(C(F)(F)F)cn1`, the inhibition at 20 µM fell in the range of 25 to 50%.

On to `CCn1c(SCc2csc(-c3cccc(OC)c3OC)n2)nc2cc(S(N)(=O)=O)ccc21`, for which the inhibition at 20 µM lay in the range of 25 to 50%.

For the compound `CN(C)C(=O)CCN1CCOC(c2nc(-c3ccccc3)cs2)C1` (stereo not shown), the inhibition at 20 µM is 1 to 25%.

As to `Cc1cccc(C)c1Oc1ccccc1NCc1nnc(C2CC2)o1`, the inhibition at 20 µM fell in the range of 25 to 50%.

As to `CC(C(N)=O)N1CCOC(c2nc(-c3ccccc3)cs2)C1` (stereo not shown), the inhibition at 20 µM lay in the range of 25 to 50%.

For the compound `O=C(CCN1C(=O)CSc2ccccc21)Nc1nnc(-c2ccccn2)[nH]1`, the inhibition at 20 µM is 25 to 50%.

For the compound `CC1CCN(C(=O)c2csc3c(O)nc(-c4ccccn4)nc23)CC1` [drawing 2674], the inhibition at 20 µM fell in the range of 51 to 75%.

`O=C(c1csc2c(O)nc(-c3ccccn3)nc12)N1CCC(N2CCOCC2)CC1` [drawing 2678]: the inhibition at 20 µM lay in the range of 25 to 50%.

In the case of `COc1ccc2c(c1)CCC2C(=O)Nc1nc(-c2ccccn2)nc2sccc12` (stereo not shown) [drawing 2818], the inhibition at 20 µM fell in the range of 1 to 25%.

As for `Cn1nc(-c2ccncc2)cc1NC(=O)c1cccnc1`, the inhibition at 20 µM was 1 to 25%.

With `COC(=O)c1ccc(C(=O)N2Cc3ccccc3C(c3ccccc3)C2)nc1` (stereo not shown), the inhibition at 20 µM is 1 to 25%.

`Cc1nc(-c2ccccn2)sc1C(=O)NCCNc1ncccn1`: the inhibition at 20 µM lay in the range of 1 to 25%.

Regarding `CC(C)Cn1cnnc1C1CCCN1c1ccc(C#N)c(C(F)(F)F)c1` (stereo not shown), the inhibition at 20 µM was in the range of 25 to 50%.

Turning to `CN(C)S(=O)(=O)c1ccc(CN2CCCc3cc(OC(F)(F)F)ccc32)o1`, the inhibition at 20 µM lay within 25 to 50%.

For `CCOC(=O)CCN(Cc1cccnc1)c1nc(C(F)(F)F)ccc1C#N`, the inhibition at 20 µM lay in the range of 1 to 25%.

With `Cc1cc(C(C)C)ccc1OCC(=O)N1N=CCC1(O)C(F)(F)F` (stereo not shown), the inhibition at 20 µM was 25 to 50%.

In the case of `OCCCSCCNc1nc(-c2ccccn2)nc2c1CCC2`, the inhibition at 20 µM was in the range of 1 to 25%.

Regarding `N#Cc1ccc(CC(=O)Nc2nc(-c3ccccn3)nc3sccc23)cc1` [drawing 2817], the inhibition at 20 µM was 1 to 25%.

Turning to `Cc1ccccc1OCCn1c(CN2CCOCC2)nc2ccccc21`, the inhibition at 20 µM lay within 1 to 25%.

With `Cc1ccccc1CC(=O)N(CC(F)(F)F)C1CCCOC1` (stereo not shown), the inhibition at 20 µM is 1 to 25%.

As for `Cc1cc(O)nc(-c2ccccn2)n1`, the inhibition at 20 µM was in the range of 25 to 50%.

Staying with this assay, now noted: 20 μM; read-out: KRas G12D Q61H % Inh.
`Cn1ccc(C(=O)Nc2nnc(-c3ccccn3)[nH]2)cc1=O` [drawing 2476]: the inhibition at 20 µM was 25 to 50%.

As to `O=C(Nc1nnc(-c2ccccn2)[nH]1)c1ccc(Oc2cccnc2)cc1` [drawing 2550], the inhibition at 20 µM was 51 to 75%.

As for `O=C(Nc1nnc(-c2ccccn2)[nH]1)c1cccc(NC(=O)C2CCCO2)c1` (stereo not shown) [drawing 2498], the inhibition at 20 µM is 51 to 75%.

`CCCCSc1nc(-c2cccs2)c(C(=O)C(F)(F)F)cc1C#N` [drawing 2618]: the inhibition at 20 µM was in the range of 51 to 75%.

Regarding `O=C(Nc1nnc(-c2ccccn2)[nH]1)C1CC1c1ccc(F)cc1` (stereo not shown) [drawing 2520], the inhibition at 20 µM lay within 51 to 75%.

On to `CC(C)c1nc(CC(=O)Nc2nnc(-c3ccccn3)[nH]2)cs1` [drawing 2480], for which the inhibition at 20 µM was 51 to 75%.

Take `O=c1nc(-c2ccccn2)[nH]c2sc(-c3ccccc3)cc12` [drawing 2588]: the inhibition at 20 µM lay within 51 to 75%.

For `CC(C)COC(C)C(=O)Nc1nnc(-c2ccccn2)[nH]1` (stereo not shown) [drawing 2505], the inhibition at 20 µM fell in the range of 51 to 75%.

In the case of `Cc1ccc(C(=O)Nc2nnc(-c3ccccn3)[nH]2)cc1S(C)(=O)=O` [drawing 2461], the inhibition at 20 µM lay in the range of 51 to 75%.

As for `O=C(Cc1cccc(F)c1)Nc1nnc(-c2ccccn2)[nH]1` [drawing 2497], the inhibition at 20 µM was 51 to 75%.

For `Cc1ccc(CC(=O)Nc2nnc(-c3ccccn3)[nH]2)cn1` [drawing 2506], the inhibition at 20 µM lay within 51 to 75%.

Take `O=C(Cn1c(=O)[nH]c2ccccc21)Nc1nnc(-c2ccccn2)[nH]1` [drawing 2536]: the inhibition at 20 µM was in the range of 51 to 75%.

Regarding `Cc1ccc(O)c(CN(C)Cc2nccn2Cc2ccccc2)n1` [drawing 2615], the inhibition at 20 µM is 51 to 75%.

On to `N#CC1(c2ccc(C(=O)N3CCCC3CO)cc2)CC1` (stereo not shown) [drawing 2632], for which the inhibition at 20 µM lay in the range of 76 to 100%.

Turning to `O=C(Nc1nnc(-c2ccccn2)[nH]1)c1csc(-c2ccco2)n1` [drawing 2546], the inhibition at 20 µM is 51 to 75%.

Turning to `Cc1nc(-c2ccccn2)nc(O)c1CCC(=O)Nc1cc(F)ccc1F` [drawing 2596], the inhibition at 20 µM was in the range of 51 to 75%.

`COC(=O)C(C)CN(Cc1cc(Br)ccc1[N+](=O)[O-])C1CC1` (stereo not shown) [drawing 2629]: the inhibition at 20 µM fell in the range of 25 to 50%.

As for `Cn1cc(C2CC2C(=O)Nc2nnc(-c3ccccn3)[nH]2)cn1` (stereo not shown) [drawing 2457], the inhibition at 20 µM was 51 to 75%.

(Values after patent US10940139B2, “Compounds that interact with the Ras superfamily for the treatment of cancers, inflammatory diseases, rasopathies, and fibrotic disease” (Shy Therapeutics LLC, priority 2017, dated 2021).)
